Data as given in US9593305B2, “Differentiation of pluripotent stem cells” (Janssen Biotech, Inc., priority 2008, dated 2017).

Columns and labels:
[1] = tested on: H1 human embryonic stem cells; assay: Four-step differentiation before transplant, RT-PCR of pancreatic endoderm markers after step 4 (Example 18); format: cell-based; settings: GDF-8 100 ng/ml + 2.5 μM compound in step 1, versus activin A and Wnt3a
Experimental: The differentiation process was started three days after the cells were seeded onto 6-well plates coated with reduced growth factor […]™. A four-step protocol was used for the in vitro differentiation of H1 human embryonic stem cells to cells expressing markers characteristic of the pancreatic endoderm lineage. Step 1 was conducted over three days to generate definitive endoderm cells. On the first day of step 1, differentiation was initiated by aspirating spent culture medium and adding an equal volume of RPMI-1640 basal medium (Invitrogen; Cat 22400) with 2% Albumin Bovine Fraction V, Fatty Acid Free (FAF BSA) (Proliant Biologicals; Cat #SKU 68700) and 8 ng/ml bFGF. In one treatment group, cells were exposed to 100 ng/ml activin A (PeproTech; Cat #120-14) with 20 ng/ml Wnt3a (R&D Systems; Cat #1324-WN/CF). In a second treatment group, cells were exposed to 100 ng/ml GDF-8 (R&D Systems; Cat #788-G8) with 2.5 μM Compound 40. In a third treatment group, cells were exposed to 100 ng/ml GDF-8 (R&D Systems; Cat #788-G8) with 2.5 μM Compound 202. […]
Step 4 of the differentiation protocol was conducted over three days. […] On the following day, cells in suspension culture were collected and counted. […]

[2] = tested on: H1 human embryonic stem cells; assay: Step-wise differentiation, high content analysis of cell number, insulin, glucagon after step 5 (Example 17); format: cell-based; settings: GDF-8 in step 1, alone or with a compound
Experimental: Step 5 of the differentiation protocol was carried out over seven days in DMEM-high glucose with 0.1% Albumax, 0.5× Insulin-Transferrin-Selenium, and 1 μM Alk 5 inhibitor. Medium in each well was aspirated and replaced with a fresh aliquot (0.5 ml) on all days. At the conclusion of the fifth step of differentiation, cells from some wells were harvested for analysis by RT-PCR to measure markers of differentiation. Other culture wells were subjected to high content image analysis for protein expression levels of insulin and glucagon.
At the conclusion of culture, assay plates were washed once with PBS (Invitrogen; Cat #14190), fixed with 4% paraformaldehyde (Alexis Biochemical; Cat #ALX-350-011) at room temperature for 20 minutes, then washed three times with PBS and permeabilized with 0.5% Triton X-100 (Sigma; Cat #T8760-2) for 20 minutes at room temperature. […]
Imaging was performed using an IN Cell Analyzer 1000 (GE Healthcare) utilizing the 51008bs dichroic for cells stained with Hoechst 33342 and Alexa Fluor 488. […] Segmentation for the nuclei was determined based on gray-scale levels (baseline range 100-300) and nuclear size. Averages and standard deviations were calculated for each replicate data set. Total protein expression was reported as total intensity or integrated intensity, defined as total fluorescence of the cell multiplied by the area of the cell. […]

| Compound | PE markers CDX2, MAFA, NGN3, NKX6.1, PDX1 and Ptf1 alpha at the conclusion of step 4 (RT-PCR) [1] | insulin and glucagon expression at the conclusion of step five [2] |
| --- | --- | --- |
| C=CCN1CC(=O)NCCCc2cncc(c2)-c2ncnc(n2)Nc2cccc(c2)C1 [Compound 40, 14-Prop-2-en-1-yl-3,5,7,14,17,23,27-heptaazatetracyclo[19.3.1.1˜2.6˜0.1˜8,12˜]heptacosa-1(25), 2(27), 3,5,8(26), 9,11,21,23-nonaen-16-one] | expressed equivalent levels of PE markers | – |
| GDF-8: growth factor GDF-8, also known as myostatin, member of the TGF-β family | – | resulted in insulin and glucagon expression |
